# In patent US10222368B2 (priority 2012, dated 2019):
# Molecular target: T1, mu opiate receptor (MOR) (Rattus norvegicus, UniProt P33535)
# T1 construct: from tissue; host or cells: striatal tissue (membrane preparation)
# Experiment: MOR agonist activity using [35S]GTPγS binding assay in striatal membranes
# Assay type: biochemical
# Details: for MOR agonist activity, [35S]GTPγS binding, FLNA-binding compound as agonist at 0.1 μM / MOR agonist activity, [35S]GTPγS binding, 1 μM + BFNA / MOR agonist activity, [35S]GTPγS binding, FLNA-binding compound as agonist at 1 μM: striatal membranes; for MOR agonist activity, [35S]GTPγS binding, FLNA-binding compound as agonist at 0.1 μM / MOR agonist activity, [35S]GTPγS binding, FLNA-binding compound as agonist at 1 μM: Series C-2; for MOR agonist activity, [35S]GTPγS binding, 1 μM + BFNA: 1 μM compound + 1 μM β-FNA (MOR antagonist); for MOR agonist activity, [35S]GTPγS binding, FLNA-binding compound as agonist at 1 μM / % DAMGO (1 μM): 1 μM compound; for MOR agonist activity ([35S]GTPγS binding to Gαo), preliminary study: average of two runs
# Procedure: To assess the mu opiate receptor (MOR) agonist activity of positive compounds from the FLNA screening, compounds were tested in a [^35S]GTPγS binding assay using striatal membranes. […] This assay measures a functional consequence of receptor occupancy at one of the earliest receptor-mediated events. The assay permits for traditional pharmacological parameters of potency, efficacy and antagonist affinity, with the advantage that agonist measures are not subjected to amplification or other modulation that may occur when analyzing parameters further downstream of the receptor.
# Thus, striatal tissue was homogenized in 10 volumes of ice cold 25 mM HEPES buffer, pH 7.4, which contained 1 mM EGTA, 100 mM sucrose, 50 μg/ml leupeptin, 0.04 mM PMSF, 2 μg/ml soybean trypsin inhibitor and 0.2% 2-mercaptoethanol. The homogenates were centrifuged at 800×g for 5 minutes and the supernatants were centrifuged at 49,000×g for 20 minutes.
# The resultant striatal membrane preparation (200 μg) was admixed and maintained (incubated) at 30° C. for 5 minutes in reaction buffer as above that additionally contained 1 mM MgCl2 and 0.5 nM [^35S]GTPγS (0.1 μCi/assay, PerkinElmer Life and Analytical Sciences) in a total volume of 250 μl and continued for 5 minutes in the absence or presence of 0.1-10 μM of an assayed compound of interest. The reaction was terminated by dilution with 750 μl of ice-cold reaction buffer that contained 20 mM MgCl2 and 1 mM EGTA and immediate centrifugation at 16,000×g for 5 minutes.
# Normal rabbit serum (1 μl) was added to 1 ml of lysate and incubated at 25° C. for 30 minutes. Nonspecific immune complexes were removed by incubation with 25 μl of protein A/G-conjugated agarose beads at 25° C. for 30 minutes followed by centrifugation at 5,000×g at 4° C. for 5 minutes. The supernatant was divided and separately incubated at 25° C. for 30 minutes with antibodies raised against Gαo proteins (1:1,000 dilutions).
# The immunocomplexes so formed were collected by incubation at 25° C. for 30 minutes with 40 μl of agarose-conjugated protein A/G beads and centrifugation at 5,000×g at 4° C. for 5 minutes. The pellet was washed and suspended in buffer containing 50 mM Tris-HCl, pH 8.0, and 1% NP-40. The radioactivity in the suspension was determined by liquid scintillation spectrometry.
# [1] = Series C-1, 1 μM compound + BFNA relative to DAMGO + BFNA
# [2] = Series C-1, 0.1 μM compound relative to DAMGO (0.1 μM)
# T1 sequence (P33535 whole entry): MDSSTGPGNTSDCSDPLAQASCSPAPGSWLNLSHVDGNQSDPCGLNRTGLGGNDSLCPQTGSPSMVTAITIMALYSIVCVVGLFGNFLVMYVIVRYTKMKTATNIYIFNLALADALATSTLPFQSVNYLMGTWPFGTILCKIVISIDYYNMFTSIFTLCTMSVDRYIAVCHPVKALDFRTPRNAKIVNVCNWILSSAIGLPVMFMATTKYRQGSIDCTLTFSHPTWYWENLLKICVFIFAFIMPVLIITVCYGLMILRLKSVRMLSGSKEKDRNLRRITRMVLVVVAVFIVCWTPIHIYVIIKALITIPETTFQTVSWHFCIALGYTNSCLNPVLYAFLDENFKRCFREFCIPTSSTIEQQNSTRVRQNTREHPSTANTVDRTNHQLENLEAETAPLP
SMILES,"MOR agonist activity, [35S]GTPγS binding, FLNA-binding compound as agonist at 0.1 μM (0.1 μM compound) [%]","MOR agonist activity, [35S]GTPγS binding, 1 μM + BFNA [%]","MOR agonist activity, [35S]GTPγS binding, FLNA-binding compound as agonist at 1 μM [%]",further results
CCc1ccc(S(=O)(=O)N2CCOC23CCN(CC2CC2)CC3)cc1 [Compound C0135M],161.3,113.3,310.1,
CN1CCC2(CC1)OCCN2S(=O)(=O)c1ccc(S(C)(=O)=O)cc1 [Compound C0106M],171.8,117.2,240.7,
C=CCN1CCC2(CC1)OCCN2S(=O)(=O)c1ccc(OC)cc1 [Compound C0091M],207.9,80.8,274.4,
CCOC(=O)CN1CCC2(CC1)OCCN2S(=O)(=O)c1ccc(C(C)=O)cc1 [Compound C0099M],157.2,114.7,195.7,% DAMGO (1 μM) (relative to DAMGO): 88.0%
COc1cccc(S(=O)(=O)N2CCC3(CC2)OCCN3S(=O)(=O)c2cccc(OC)c2)c1 [Compound C0002],,,,% DAMGO + BFNA [1]: 6.1%
CCN1CCC2(CC1)OCCN2S(=O)(=O)c1ccc(OC)cc1 [Compound C0089M],234.5,81.9,295.3,
CC(C)c1ccc(S(=O)(=O)N2CCC3(CC2)OCCN3S(=O)(=O)c2ccc(C(C)C)cc2)cc1 [Compound C0007],,,,% DAMGO (0.1 μM) [2]: 46.0%; % DAMGO + BFNA [1]: 17.0%
Cc1cccc(S(=O)(=O)N2CCC3(CC2)OCCN3S(=O)(=O)c2cccc(C)c2)c1 [Compound C0014],,,,% DAMGO (0.1 μM) [2]: 82.0%
CC(=O)c1ccc(S(=O)(=O)N2CCOC23CCN(CC(=O)O)CC3)cc1 [Compound C0100M],173.6,195.6,245.9,
COc1ccc(S(=O)(=O)N2CCC3(CC2)NCCO3)cc1 [Compound C0026],207.2,21.2,288.4,
CCN1CCC2(CC1)OCCN2S(=O)(=O)c1ccc(C(C)=O)cc1 [Compound C0094M],172.5,115.3,263.5,
O=[N+]([O-])c1ccc(S(=O)(=O)N2CCC3(CC2)NCCO3)cc1 [Compound C0040],145.8,90.4,308.3,
CC(=O)c1ccc(S(=O)(=O)N2CCOC23CCN(C)CC3)cc1 [Compound C0093M],140.0,44.0,211.8,
Cc1ccc(S(=O)(=O)N2CCOC23CCN(CC2CC2)CC3)cc1 [Compound C0134M],158.5,46.6,207.3,"MOR agonist activity ([35S]GTPγS binding to Gαo), preliminary study (0.1 μM compound as agonist): 150.7%; % DAMGO (0.1 μM) (0.1 μM compound, relative to DAMGO): 94.6%; MOR agonist activity ([35S]GTPγS binding to Gαo), preliminary study (1 μM + βNFA): 53.2%; % DAMGO + BFNA (1 μM compound + BFNA, relative to DAMGO + BFNA): 98.1%; MOR agonist activity ([35S]GTPγS binding to Gαo), preliminary study (1 μM compound as agonist): 224.0%; % DAMGO (1 μM) (relative to DAMGO): 93.3%"
O=C1CN(Cc2ccccc2)C2(CCNCC2)N1 [Compound C0115M],177.2,118.4,226.8,
